Legend:
[1] = molecular target: T1, NLRP3 (Homo sapiens, UniProt Q96P20); test: THP-1 cells pyroptosis assay (LPS + nigericin, resazurin readout); type: cell-based; set-up: Seed THP-1 cells (25,000cells/well) containing 1.0 μg/ml LPS; host or cells: THP-1 cells, LPS-primed, nigericin-stimulated; conditions: 1.0 μg/ml LPS, compound 3 hours, nigericin 5 μM 1 hr
Experimental: THP-1 cells (ATCC #TIB-202) were grown in RPMI containing L-glutamine (Gibco #11835) supplemented with 1 mM sodium pyruvate (Sigma #S8636) and penicillin (100 units/ml)/streptomycin (0.1 mg/ml) (Sigma #P4333) in 10% Fetal Bovine Serum (FBS) (Sigma #F0804). The cells were routinely passaged and grown to confluency (˜10^6cells/ml). On the day of the experiment, THP-1 cells were harvested and resuspended into RPMI medium (without FBS). The cells were then counted and viability (>90%) checked by Trypan blue (Sigma #T8154). Appropriate dilutions were made to give a concentration of 625,000cells/ml. To this diluted cell solution was added LPS (Sigma #L4524) to give a lug/ml Final Assay Concentration (FAC). 40 μl of the final preparation was aliquoted into each well of a 96-well plate. The plate thus prepared was used for compound screening.
The following method step-by-step assay was followed for compound screening. • 1. Seed THP-1 cells (25,000cells/well) containing 1.0 μg/ml LPS in 40 μl of RPMI medium (without FBS) in 96-well, black walled, clear bottom cell culture plates coated with poly-D-lysine (VWR #734-0317) • 2. Add 5 μl compound (8 points half-log dilution, with 10 μM top dose) or vehicle (DMSO 0.1% FAC) to the appropriate wells • 3. Incubate for 3 hours at 37° C., 5% CO2 • 4. Add 5 μl nigericin (Sigma #N7143) (FAC 5 μM) to all wells • 5. Incubate for 1 hr at 37° C., 5% CO2 • 6. At the end of the incubation period, spin plates at 300×g for 3 mins and remove supernatant • 7. Then add 50 μl of resazurin (Sigma #R^7017) (FAC 100 μM resazurin in RPMI medium without FBS) and incubate plates for a further 1-2 hours at 37° C. and 5% CO2 • 8. Plates were read in an Envision reader at Ex 560 nm and Em 590 nm • 9. IC50 data is fitted to a non-linear regression equation (log inhibitor vs response-variable slope 4-parameters)

[2] = molecular target: T1, NLRP3; test: Human whole blood IL-1β release assay (LPS + nigericin, AlphaLisa); type: cell-based; set-up: Human whole blood in Li-heparin tubes was obtained from healthy donors; from tissue; host or cells: human whole blood from healthy donors, LPS-primed, nigericin-stimulated; conditions: 1 ug/ml LPS, compound 3 hours, nigericin 10 μM 1 hr, IL-1β in supernatant
Experimental: For systemic delivery, the ability to inhibit NLRP3 when the compounds are present within the bloodstream is of great importance. For this reason, the NLRP3 inhibitory activity of a number of compounds in human whole blood was investigated in accordance with the following protocol.
Human whole blood in Li-heparin tubes was obtained from healthy donors from a volunteer donor panel. • 1. Plate out 80 μl of whole blood containing lug/ml of LPS in 96-well, clear bottom cell culture plate (Corning #3585) • 2. Add 10 μl compound (8 points half-log dilution with 10 μM top dose) or vehicle (DMSO 0.1% FAC) to the appropriate wells • 3. Incubate for 3 hours at 37° C., 5% CO2 • 4. Add 10 μl nigericin (Sigma #N7143) (10 μM FAC) to all wells • 5. Incubate for 1 hr at 37° C., 5% CO2 • 6. At the end of the incubation period, spin plates at 300×g for 5 mins to pellet cells and remove 20 μl of supernatant and add to 96-well v-bottom plates for IL-1β analysis (note: these plates containing the supernatants can be stored at −80° C. to be analysed at a later date) • 7. IL-1β was measured according to the manufacturer protocol (Perkin Elmer-AlphaLisa IL-1 Kit AL220F-5000) • 8. IC50 data is fitted to a non-linear regression equation (log inhibitor vs response-variable slope 4-parameters)

T1 sequence (Q96P20 whole entry): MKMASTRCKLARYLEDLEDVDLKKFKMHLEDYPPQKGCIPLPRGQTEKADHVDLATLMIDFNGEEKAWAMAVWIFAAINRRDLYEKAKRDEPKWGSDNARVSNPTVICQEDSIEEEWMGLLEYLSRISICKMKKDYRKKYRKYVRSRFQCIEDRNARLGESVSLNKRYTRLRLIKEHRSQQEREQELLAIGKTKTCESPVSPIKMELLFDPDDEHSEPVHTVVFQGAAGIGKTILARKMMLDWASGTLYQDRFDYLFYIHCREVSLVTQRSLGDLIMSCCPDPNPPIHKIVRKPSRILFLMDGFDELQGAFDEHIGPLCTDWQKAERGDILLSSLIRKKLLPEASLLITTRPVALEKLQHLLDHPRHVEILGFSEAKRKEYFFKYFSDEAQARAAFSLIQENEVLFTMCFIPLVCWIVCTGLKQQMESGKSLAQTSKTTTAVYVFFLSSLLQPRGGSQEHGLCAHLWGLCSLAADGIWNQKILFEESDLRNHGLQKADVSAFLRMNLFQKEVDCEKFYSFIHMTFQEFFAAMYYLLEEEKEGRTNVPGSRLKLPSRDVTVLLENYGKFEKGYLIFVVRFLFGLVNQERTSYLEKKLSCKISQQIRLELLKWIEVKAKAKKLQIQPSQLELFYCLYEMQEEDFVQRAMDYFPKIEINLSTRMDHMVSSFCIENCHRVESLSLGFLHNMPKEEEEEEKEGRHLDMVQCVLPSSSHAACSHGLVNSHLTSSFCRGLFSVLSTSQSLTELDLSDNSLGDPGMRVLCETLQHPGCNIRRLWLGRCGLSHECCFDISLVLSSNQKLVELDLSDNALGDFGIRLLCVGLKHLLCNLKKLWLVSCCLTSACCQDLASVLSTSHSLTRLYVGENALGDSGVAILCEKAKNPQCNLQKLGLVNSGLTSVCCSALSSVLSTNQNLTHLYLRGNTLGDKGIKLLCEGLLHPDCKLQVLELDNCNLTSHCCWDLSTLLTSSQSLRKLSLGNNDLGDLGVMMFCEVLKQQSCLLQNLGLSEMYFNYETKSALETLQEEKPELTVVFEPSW

SMILES | IC50 [1] [nM] | IC50 [2] [nM]
CCN1CC[C@H]2CCN(c3nnc(-c4ccc(C#N)cc4O)c(C)n3)[C@H]2C1 (single isomer, unassigned) [Example 2A, 4-[3-[(3aS,7aR)-6-Ethyl-3,3a,4,5,7,7a-hexahydro-2H-pyrrolo[2,3-c]pyridin-1-yl]-5-methyl-1,2,4-triazin-6-yl]-3-hydroxy-benzonitrile or 4-[3-[(3aR,7aS)-6-ethyl-3,3a,4,5,7,7a-hexahydro-2H-pyrrolo[2,3-c]pyridin-1-yl]-5-methyl-1,2,4-triazin-6-yl]-3-hydroxy-benzonitrile] | 36.4 | 38
CCN1CCC2CCN(c3nnc(-c4ccc(C#N)cc4O)c(C)n3)C2C1 (single isomer, unassigned) [Example 2B, 4-[3-[(3aR,7aS)-6-Ethyl-3,3a,4,5,7,7a-hexahydro-2H-pyrrolo[2,3-c]pyridin-1-yl]-5-methyl-1,2,4-triazin-6-yl]-3-hydroxy-benzonitrile or 4-[3-[(3aS,7aR)-6-ethyl-3,3a,4,5,7,7a-hexahydro-2H-pyrrolo[2,3-c]pyridin-1-yl]-5-methyl-1,2,4-triazin-6-yl]-3-hydroxy-benzonitrile] | > 1000 | 
Cc1nc(N2CC[C@@H]3CCN(C)C[C@@H]32)nnc1-c1ccc(C#N)cc1O (single isomer, unassigned) [Example 4A, 4-[3-[(3aS,7aR)-6-Methyl-3,3a,4,5,7,7a-hexahydro-2H-pyrrolo[2,3-c]pyridin-1-yl]-5-methyl-1,2,4-triazin-6-yl]-3-hydroxy-benzonitrile or 4-[3-[(3aR,7aS)-6-methyl-3,3a,4,5,7,7a-hexahydro-2H-pyrrolo[2,3-c]pyridin-1-yl]-5-methyl-1,2,4-triazin-6-yl]-3-hydroxy-benzonitrile] | 47.4 | 41
Cc1nc(N2CCC3CCN(C)CC32)nnc1-c1ccc(C#N)cc1O (single isomer, unassigned) [Example 4B, 4-[3-[(3aR,7aS)-6-Methyl-3,3a,4,5,7,7a-hexahydro-2H-pyrrolo[2,3-c]pyridin-1-yl]-5-methyl-1,2,4-triazin-6-yl]-3-hydroxy-benzonitrile or 4-[3-[(3aS,7aR)-6-methyl-3,3a,4,5,7,7a-hexahydro-2H-pyrrolo[2,3-c]pyridin-1-yl]-5-methyl-1,2,4-triazin-6-yl]-3-hydroxy-benzonitrile] | > 1000 | 

Second part, the compound after the results:

IC50 [1] [nM] | IC50 [2] [nM] | SMILES
1.8 | 12 | CCN1CCC2CCN(c3nnc(-c4ccc5c(c4O)CCO5)c(C)n3)C2C1 (single isomer, unassigned) [Example 1A, 5-[3-[(3aS,7aR)-6-Ethyl-3,3a,4,5,7,7a-hexahydro-2H-pyrrolo[2,3-c]pyridin-1-yl]-5-methyl-1,2,4-triazin-6-yl]-2,3-dihydrobenzofuran-4-ol or 5-[3-[(3aR,7aS)-6-ethyl-3,3a,4,5,7,7a-hexahydro-2H-pyrrolo[2,3-c]pyridin-1-yl]-5-methyl-1,2,4-triazin-6-yl]-2,3-dihydrobenzofuran-4-ol]
64.4 | 375 | CCN1CCC2CCN(c3nnc(-c4ccc5c(c4O)CCO5)c(C)n3)C2C1 (single isomer, unassigned) [Example 1B, 5-[3-[(3aR,7aS)-6-Ethyl-3,3a,4,5,7,7a-hexahydro-2H-pyrrolo[2,3-c]pyridin-1-yl]-5-methyl-1,2,4-triazin-6-yl]-2,3-dihydrobenzofuran-4-ol or 5-[3-[(3aS,7aR)-6-ethyl-3,3a,4,5,7,7a-hexahydro-2H-pyrrolo[2,3-c]pyridin-1-yl]-5-methyl-1,2,4-triazin-6-yl]-2,3-dihydrobenzofuran-4-ol]
1.9 | 7 | Cc1nc(N2CC[C@@H]3CCN(C)C[C@@H]32)nnc1-c1ccc2c(c1O)CCO2 (single isomer, unassigned) [Example 3A, 5-[3-[(3aS,7aR)-6-Methyl-3,3a,4,5,7,7a-hexahydro-2H-pyrrolo[2,3-c]pyridin-1-yl]-5-methyl-1,2,4-triazin-6-yl]-2,3-dihydrobenzofuran-4-ol or 5-[3-[(3aR,7aS)-6-methyl-3,3a,4,5,7,7a-hexahydro-2H-pyrrolo[2,3-c]pyridin-1-yl]-5-methyl-1,2,4-triazin-6-yl]-2,3-dihydrobenzofuran-4-ol]
52.2 | 115 | Cc1nc(N2CCC3CCN(C)CC32)nnc1-c1ccc2c(c1O)CCO2 (single isomer, unassigned) [Example 3B, 5-[3-[(3aR,7aS)-6-Methyl-3,3a,4,5,7,7a-hexahydro-2H-pyrrolo[2,3-c]pyridin-1-yl]-5-methyl-1,2,4-triazin-6-yl]-2,3-dihydrobenzofuran-4-ol or 5-[3-[(3aS,7aR)-6-methyl-3,3a,4,5,7,7a-hexahydro-2H-pyrrolo[2,3-c]pyridin-1-yl]-5-methyl-1,2,4-triazin-6-yl]-2,3-dihydrobenzofuran-4-ol]
